These results are taken from patent publication US6048893A, “Substituted phenyl compounds with a substituent having A 1,3-benzodioxole ring” (Rhone-Poulenc Rorer Limited, priority 1995, dated 2000).

The test system of one assay is hamster bleomycin model. The settings on record: cited from earlier work.
The next assay deals with T1, A10 cell ETA receptors (Rattus norvegicus, UniProt P26684).
T1 construct: endogenous in cells; host or cells: A10 cells (frozen cells, about 60,000 per well)
T1 sequence (P26684 21-426): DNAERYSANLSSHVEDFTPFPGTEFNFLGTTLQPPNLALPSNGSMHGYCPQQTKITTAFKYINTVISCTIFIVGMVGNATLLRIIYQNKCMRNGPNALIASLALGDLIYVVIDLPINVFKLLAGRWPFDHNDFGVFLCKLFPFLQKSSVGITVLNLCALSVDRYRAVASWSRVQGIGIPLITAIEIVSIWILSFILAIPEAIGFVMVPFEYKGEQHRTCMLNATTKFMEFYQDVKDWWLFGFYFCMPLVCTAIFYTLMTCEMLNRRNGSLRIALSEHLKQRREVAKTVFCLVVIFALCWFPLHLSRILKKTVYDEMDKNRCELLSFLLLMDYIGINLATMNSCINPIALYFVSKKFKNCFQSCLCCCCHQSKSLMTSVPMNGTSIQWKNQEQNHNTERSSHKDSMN
Put plainly: Inhibition of [125I]-ET-1 binding to A10 cell ETA receptors. The settings on record: [125I]-ET-1 20 pM, 2 hours at 37 C; read-out: concentration producing 50% inhibition of the binding of [125I]-ET-1 to A10 cell ETA receptors. How it is done:
A) Preparation of ETA Receptors:
A10 cells are grown to confluence in Dulbecco's modified essential medium containing 10% foetal calf serum. Two days after the final medium change cells are harvested by scraping from the base of the flask and centrifuged at 1500 rpm for 10 minutes at 4-- C in an bench centrifuge. The resulting pellets are washed in 50 mM Hepes buffer pH 7.3 containing calcium chloride (1 mM) and magnesium chloride (5 mM) and resuspended at a density of 140,000 cells/ml in the same. Cell suspensions are then frozen using a mixture of methanol and solid carbon dioxide and stored at -20-- C until required. For use in the assay cells are diluted to the required density with Hepes buffer pH 7.3.
Assays are performed using Millipore 96 well filtration plates with 0.22 μm filters in a final volume of […]. Mixtures consisting of test compound and [^125 I]-ET-1 (20 pM) in buffer pH 7.4 containing 0.1% bovine serum albumin are treated with either A10 cells or cerebellum protein. Total and non-specific binding are measured in the absence and presence of unlabeled ET-1 (100 nM). Approximately 60,000 A10 cells are used per well or 5 μg of cerebellum protein. Plates are incubated for 2 hours at 37-- C before the reaction is terminated by vacuum filtration. Plates are washed twice with assay buffer at 4-- C and the filters are punched out for gamma counting.

Assay [1] has as its target T2, rat cerebellum ETB receptors (Rattus norvegicus, UniProt P21451).
T2 construct: from tissue; host or cells: rat cerebellum, particulate fraction (4000 g pellet)
T2 sequence (P21451 27-442): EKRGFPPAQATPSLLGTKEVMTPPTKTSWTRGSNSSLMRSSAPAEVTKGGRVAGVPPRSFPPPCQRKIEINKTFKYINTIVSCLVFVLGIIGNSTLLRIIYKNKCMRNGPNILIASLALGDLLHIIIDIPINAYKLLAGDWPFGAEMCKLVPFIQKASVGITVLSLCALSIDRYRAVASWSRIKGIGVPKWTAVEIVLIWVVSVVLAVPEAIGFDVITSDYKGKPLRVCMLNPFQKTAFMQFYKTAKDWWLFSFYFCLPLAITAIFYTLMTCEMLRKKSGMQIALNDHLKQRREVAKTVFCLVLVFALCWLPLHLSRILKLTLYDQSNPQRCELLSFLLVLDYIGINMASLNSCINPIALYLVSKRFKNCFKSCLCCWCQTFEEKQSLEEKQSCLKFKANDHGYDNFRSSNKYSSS
Put plainly: Inhibition of [125I]-ET-1 binding to rat cerebellum ETB receptors. Particulars: [125I]-ET-1 20 pM, 2 hours at 37 C; read-out: concentration producing 50% inhibition of the binding of [125I]-ET-1 to rat cerebellum ETB receptors. How it is done:
B) Preparation of ETB Receptors:
Rats are killed by cervical dislocation and the cerebellum tissue is removed into ice cold Tris buffer pH 7.4 containing sucrose (0.25M), ethylenediaminetetracetic acid (3 mM), and a cocktail of protease inhibitors. After homogenizing using a glass/teflon manual homogenizer, the samples are centrifuged at 4-- C for 17 minutes at 1000 g, and the resulting supernatants are retained. This material is centrifuged at 4000 g for 35 minutes at 4-- C and the pellets are resuspended in 50 mM Tris buffer pH 7.4, and the protein concentration is measured. Aliquots of […] are frozen in a mixture of methanol and solid carbon dioxide and stored at -20-- C until required. For use in the assay samples are diluted to the required concentration with Tris buffer pH 7.4 containing 0.1% bovine serum albumin.
Assays are performed using Millipore 96 well filtration plates with 0.22 μm filters in a final volume of […]. Mixtures consisting of test compound and [^125 I]-ET-1 (20 pM) in buffer pH 7.4 containing 0.1% bovine serum albumin are treated with either A10 cells or cerebellum protein. Total and non-specific binding are measured in the absence and presence of unlabeled ET-1 (100 nM). Approximately 60,000 A10 cells are used per well or 5 μg of cerebellum protein. Plates are incubated for 2 hours at 37-- C before the reaction is terminated by vacuum filtration. […]

Non-standard residues stand in square brackets, D forms with d. Residues, ends and D or L forms follow the SMILES beside them.

Turning to `CC(C)C[C@@H]1NC(=O)[C@@H](C(C)C)NC(=O)[C@@H]2CCCN2C(=O)[C@@H](CC(=O)O)NC(=O)[C@@H](Cc2c[nH]c3ccccc23)NC1=O` [BQ123] (cyclo(L[dW][dD]P[dV])), the anti-fibrotic effect entry in the assay with hamster bleomycin model is recorded as “anti-fibrotic effects”.

Take `Cc1ccccc1[C@H](Oc1cc(OCc2ccc3c(c2)OCO3)ccc1C#N)C(=O)O`: the IC50 at A10 cell ETA receptors came to 0.006 µM; in assay [1] it was 35 µM.
